Our source for the IC50 and EC50 values is ChEMBL document CHEMBL4622953, “Synthesis and biological evaluation of thioadatanserin and its dialkylated products as partial 5-HTR1A agonists and 5-HTR2A antagonists for potential use in depression and anxiety disorders” (Bioorg Med Chem Lett, 2020).

SMILES strings stand for the structures. Counter-ions that a name gives are not always drawn.

What all share (assay type): cell-based
Assay [1] deals with T1, 5-hydroxytryptamine receptor 2C (Homo sapiens, UniProt P28335).
T1 sequence (P28335 whole entry): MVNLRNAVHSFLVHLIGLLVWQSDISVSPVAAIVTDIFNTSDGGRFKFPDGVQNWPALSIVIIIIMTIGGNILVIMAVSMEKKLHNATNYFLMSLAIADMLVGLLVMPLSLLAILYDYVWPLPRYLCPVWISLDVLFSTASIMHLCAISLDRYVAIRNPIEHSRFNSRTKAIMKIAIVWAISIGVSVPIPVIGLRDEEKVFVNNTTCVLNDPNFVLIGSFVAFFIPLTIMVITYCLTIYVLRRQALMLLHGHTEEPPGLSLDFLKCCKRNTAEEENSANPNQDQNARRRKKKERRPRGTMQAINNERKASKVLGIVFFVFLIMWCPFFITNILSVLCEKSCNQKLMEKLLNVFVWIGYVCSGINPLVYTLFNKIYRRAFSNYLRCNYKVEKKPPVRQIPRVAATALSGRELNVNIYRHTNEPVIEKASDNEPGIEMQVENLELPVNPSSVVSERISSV
In words: Antagonist activity at recombinant human 5-HT2C expressed in human U2OS cells by pathhunter beta-arrestin assay.

Assay [2] has as its target 5-hydroxytryptamine receptor 2A (Homo sapiens, UniProt P28223). In words: Antagonist activity at recombinant human 5-HT2A expressed in human U2OS cells by pathhunter beta-arrestin assay.
Assay [3] addresses T2, 5-hydroxytryptamine receptor 1A (Homo sapiens, UniProt P08908).
T2 sequence (P08908 whole entry): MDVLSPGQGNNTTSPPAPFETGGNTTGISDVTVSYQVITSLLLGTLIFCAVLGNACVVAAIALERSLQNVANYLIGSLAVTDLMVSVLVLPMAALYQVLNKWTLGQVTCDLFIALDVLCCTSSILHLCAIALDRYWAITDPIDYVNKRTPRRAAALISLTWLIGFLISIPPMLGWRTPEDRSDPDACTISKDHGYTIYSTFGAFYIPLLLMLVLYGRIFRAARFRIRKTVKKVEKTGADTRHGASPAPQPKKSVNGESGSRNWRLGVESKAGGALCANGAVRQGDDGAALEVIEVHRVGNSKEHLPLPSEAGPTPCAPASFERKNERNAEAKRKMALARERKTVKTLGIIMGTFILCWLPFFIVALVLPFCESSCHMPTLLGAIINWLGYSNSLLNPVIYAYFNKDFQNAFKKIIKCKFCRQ
Nature of the assay: Partial agonist activity at recombinant human 5-HT1A expressed in CHO-K1 cells by pathhunter beta-arrestin assay.

Chain of 5-hydroxytryptamine receptor 2A (P28223 whole entry): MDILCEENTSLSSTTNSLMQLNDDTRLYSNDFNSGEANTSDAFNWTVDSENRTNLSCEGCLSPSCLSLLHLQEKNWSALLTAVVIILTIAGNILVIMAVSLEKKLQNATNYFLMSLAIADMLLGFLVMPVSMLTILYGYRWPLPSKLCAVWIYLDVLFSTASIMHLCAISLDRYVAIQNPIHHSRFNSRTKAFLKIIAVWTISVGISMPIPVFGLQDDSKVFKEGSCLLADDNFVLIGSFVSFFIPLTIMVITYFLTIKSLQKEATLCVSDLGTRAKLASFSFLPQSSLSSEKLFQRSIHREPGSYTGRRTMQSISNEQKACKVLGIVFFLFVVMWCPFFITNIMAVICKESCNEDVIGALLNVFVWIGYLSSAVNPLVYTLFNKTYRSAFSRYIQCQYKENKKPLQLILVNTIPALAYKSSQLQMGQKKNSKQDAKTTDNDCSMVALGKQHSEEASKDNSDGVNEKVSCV

Turning to `S=C(NCCN1CCN(c2ncccn2)CC1)C12CC3CC(CC(C3)C1)C2`, the IC50 in assay [1] was above 3330 nM; in assay [2], 62.3 nM.
Regarding `c1ccc(CS/C(=N/CC[N+]2(Cc3ccccc3)CCN(c3ncccn3)CC2)C23CC4CC(CC(C4)C2)C3)cc1`, the concentration for half-maximal inhibition (IC50) in assay [2] was above 10000 nM.
As for `CS/C(=N/CC[N+]1(C)CCN(c2ncccn2)CC1)C12CC3CC(CC(C3)C1)C2`, in assay [2], the IC50 was above 10000 nM. For the same compound, the half-maximal effective concentration (EC50) in assay [3] was above 10000 nM.
In the case of `O=C(NCCN1CCN(c2ncccn2)CC1)C12CC3CC(CC(C3)C1)C2` [ADATANSERIN HYDROCHLORIDE], the IC50 worked out at 1260 nM in assay [1] and 33.7 nM in assay [2]. In assay [3], the half-maximal effective concentration (EC50) amounted to 2.1 nM.
As to `Cc1cc2c(cc1Cl)N(C(=O)Nc1ccc(Oc3cccnc3C)nc1)CC2` [SB-242084], the IC50 in assay [1] turned out to be 0.33 nM.
